We go through 3 compounds from US20110288134A1, “COMPOSITION AND METHOD FOR TREATING FIBROSIS” (Pacific Therapeutics Ltd., priority 2008, published 2011).

Read-outs that look alike come from different tables or passages of the source.

The test system of data set [1] is TGF-β1 induced ECM accumulation in HFL1 human lung fibroblast cells. Put plainly: TGF-β1 induced monolayer extracellular matrix (ECM) accumulation assay (Sirius Red collagen) in fibronectin-coated plates. Particulars: for inhibition at 300 µM: compound alone at 300 μM (FIG. 1). The class given is cell-based. From the text:
The composition comprising tranilast and NAC or composition containing pirfenidone and NAC was investigated for their antifibrotic activity by employing in vitro collagen synthesis assay: the TGF-β1 induced monolayer extracellular matrix (ECM) accumulation assay in fibronectin-coated plates.
Method Human lung fibroblast cell line, HFL1, was purchased from American Type Culture Collection. Cells were maintained in FK12 medium supplemented with 10% FBS and antibiotics. Cells were trypsinized and seeded into 96-well fibronectin-coated plate as 5×10^4cells/well and cultured overnight to achieve 60-80% confluence. After a washing with PBS and serum-free medium, fresh medium supplemented with 40 pM of TGF-β1 was added in each test well. Different concentrations of tranilast, pirfenidone, NAC and their combinations were also added to some test wells. The plates were left at 37° C. in a CO2 incubator for 72 h. After removing medium cells were fixed to the plate with 0.5% glutaraldehyde for 30 minutes at room temperature. Cells were washed and treated with 0.5M acetic acid for 30 minutes. After washing cells with distilled water 250 µl of Sirius Red was added for 2 hours. Dye was removed and cells were washed with distilled water. Sirius Red was eluted with 200 ul 0.1 N sodium hydroxide, and the optical density at 540 nm was determined using a Molecular Dynamics spectrophotometer.

The conditions of data set [2]: cited from earlier work.
The conditions of data set [3]: doses of up to 600 mg/day for at least 3 months, many years of clinical use; cited from earlier work.
[4] abbreviates: HFL1 cells, 40 pM TGF-β1, 72 h, compound alone at 10 μM (FIG. 1).
[5] abbreviates: Homo sapiens, HFL1 cells, 40 pM TGF-β1, 72 h, read-out: inhibition of TGF-β1 mediated ECM (collagen) accumulation.
[6] abbreviates: combination screen plate (FIG. 2A/3A), HFL1 cells, compound alone at 300 μM.

`CC(=O)N[C@@H](CS)C(=O)O` [NAC, N-acetyl-cysteine]: the “inhibition of TGF-β1 mediated ECM accumulation” value is “not effective” in data set [1] (HFL1 cells, 40 pM TGF-β1, 72 h, alone at 0.1 mM (FIG. 1C)); “not effective” in data set [1] (HFL1 cells, 40 pM TGF-β1, 72 h, alone at 0.5 mM (FIG. 1C)); “not effective” in data set [1] (HFL1 cells, 40 pM TGF-β1, 72 h, alone at 1 mM (FIG. 1C)). The “suppression of TGF-β1 mediated ECM accumulation” value is given as 32±14% in data set [1] (HFL1 cells, 40 pM TGF-β1, 72 h, alone at 2 mM (FIG. 1C)); 45±17% in data set [1] (HFL1 cells, 40 pM TGF-β1, 72 h, alone at 5 mM (FIG. 1C)); 70.5±18% in data set [1] (HFL1 cells, 40 pM TGF-β1, 72 h, alone at 10 mM (FIG. 1C)). For the same compound, the inhibition at 20000 µM in data set [1] (Homo sapiens, HFL1 cells, 40 pM TGF-β1, 72 h, alone at 20 mM (FIG. 1C), read-out: inhibition of TGF-β1 mediated ECM accumulation) was found to be 100%. The “suppression of TGF-β1 mediated collagen accumulation” value in data set [1] (screen plate FIG. 2A, compound alone at 2 mM) was found to be 25%.

Turning to `Cc1ccc(=O)n(-c2ccccc2)c1` [pirfenidone, 5-methyl-L-phenyl-2-(1H)-pyridone], the “inhibition of TGF-β1 mediated ECM (collagen) accumulation” value in data set [1] (setting [4]) is “not effective”; in data set [1] (HFL1 cells, 40 pM TGF-β1, 72 h, compound alone at 100 μM (FIG. 1)) it was “not effective”. For the same compound, the inhibition at 1000 µM in data set [1] (Homo sapiens, HFL1, screen plate FIG. 3A, compound alone at 1000 μM, read-out: anti-fibrosis activity (inhibition of TGF-β1 induced collagen accumulation)) was 100%; in data set [1] (Homo sapiens, HFL1 cells, 40 pM TGF-β1, 72 h, compound alone at 1000 μM (FIG. 1), read-out: inhibition of TGF-β1 mediated ECM (collagen) accumulation) it was roughly 100%. For the same compound, the inhibition at 300 µM in data set [1] (setting [5]) came to 22 ± 7%. For the same compound, the inhibition at 500 µM in data set [1] (Homo sapiens, HFL1 cells, 40 pM TGF-β1, 72 h, compound alone at 500 μM (FIG. 1), read-out: inhibition of TGF-β1 mediated ECM (collagen) accumulation) came to 33 ± 8%. Also, the “suppression of TGF-β1 mediated collagen accumulation” value in data set [1] (setting [6]) turned out to be 18%. In addition, the plasma concentration in data set [2] (usual therapeutic dose of 1200 mg/day (Shi, Wu et al. 2007)) is 100 to 1000 µM.

For `COc1ccc(/C=C/C(=O)Nc2ccccc2C(=O)O)cc1OC` [tranilast, n-[3,4-dimethoxycinnamoyl] anthranilic acid], in data set [1] (50 μM tranilast with 2 mM NAC (88%) versus tranilast alone (11%)), the “shift in the potency of tranilast” value came out at 8 fold. Further, the “inhibition of TGF-β1 mediated ECM (collagen) accumulation” value in data set [1] (setting [4]) is listed as “no significant inhibition”; in data set [1] (HFL1 cells, 40 pM TGF-β1, 72 h, compound alone at 25 μM (FIG. 1)) it was “no significant inhibition”; in data set [1] (HFL1 cells, 40 pM TGF-β1, 72 h, compound alone at 50 μM (FIG. 1)), “no significant inhibition”. Besides, the inhibition at 100 µM in data set [1] (Homo sapiens, HFL1 cells, 40 pM TGF-β1, 72 h, compound alone at 100 μM (FIG. 1), read-out: inhibition of TGF-β1 mediated ECM (collagen) accumulation) was 34 ± 11%. For the same compound, the inhibition at 300 µM in data set [1] (setting [5]) is 100%. The “suppression of TGF-β1 mediated collagen accumulation” value in data set [1] (setting [6]) is reported as 100%; in data set [1] (screen plate FIG. 2A, compound alone at 50 μM), 11%. Moreover, the plasma concentration in data set [2] (after oral administration of the usual therapeutic dose of 600 mg/day (Kusama et al. 1999)) is 30 to 300 µM. In addition, in data set [3], the “clinical safety and tolerability” value was “safe and well tolerated”.
